# In US10675267B2, “Methods for detection and eradication of myeloid leukemia stem cells” (priority 2015, dated 2020):
# Entries after “also recorded” stand apart in the source; their conditions may differ.
# Tests used:
# [1] = Mouse weights over the two-week treatment period (tolerability); type: in vivo; settings: 5-10 mg/kg intravenously, three doses over two weeks
# Protocol: For in vivo treatments, a 10 mg/mL stock solution of 17S-FD-895 solubilized in DMSO was used. After randomization, AML-engrafted mice were dosed intravenously with 17S-FD-895 (5-10 mg/kg) or vehicle (for AML-08, vehicle control=15% DMSO in PBS; for AML-37, vehicle control=20% DMSO in PBS) three times over a two-week period, with the first dose given on day 1, the second on day 7, and the third on day 14. For preparation of RNA from human LSC-enriched populations, single cell suspensions from spleen and bone marrow were CD34 double-selected (over two LS selection columns, Miltenyi) and 1-2×10^5 cells were collected in lysis buffer or pooled according to treatment group for serial transplantation assays.
# All animal studies were performed in accordance with UCSD and NIH-equivalent ethical guidelines and were approved by the Institutional Animal Care and Use Committee. Three AML PRIMAGRAFT™ models were established from AML LSC-enriched cell fractions (1-2×10^5 CD34^+ cells) transplanted intrahepatically into neonatal Rag2^−/−γc^−/− as previously described (Abrahamsson et al., 2009), or intravenously into sublethally irradiated adult (6-8 weeks old) NOD/SCID-IL2RG mice (NSGS, Jackson Laboratory). […] After treatment, hematopoietic tissues were analyzed as described following. […]
# [2] = system: pFlare splicing reporter (MAPT exon 10) in HEK293 cells; assay: Dual fluorescence (RFP/GFP) alternative splicing reporter (pFlare) assay; type: cell-based
# Protocol: For evaluation of in vitro splicing activity using a two-color fluorescent splicing reporter system, HEK293T cells (mycoplasma-free authenticated cell lines obtained from ATCC) were grown in complete media (DMEM+10% FBS) and transfected with a series of fluorescent protein-expressing plasmids. Vector controls include pFlare5A, which expresses solely GFP, and pFlare5G, which expresses maximal RFP. The pFlare reporter contains microtubule-associated protein tau (MAPT) exon 10 as an indicator of alternative splicing. Under physiological conditions, the pFlare conditional reporter vector allows in-frame expression of GFP but not RFP. In the presence of splicing inhibitors, exon skipping favors production of RFP over GFP. […] Fluorescence was evaluated on a Leica fluorescent microscope (Sanford Consortium Stem Cell Core facility) and then analyzed by flow cytometry on a Miltenyi MACSQUANT® to assess transfection efficiency (ranging from over 70% at 24 hrs after transfection to approximately 20% at 48 hrs after transfection) and mean fluorescence intensity (MFI) of RFP and GFP in positive cells. In HEK293 cells transiently transfected with control GFP or RFP vectors, or the pFlare splicing reporter vector, the dynamic range of the assay as measured by MFI of GFP and RFP 48 hours after transfection ranged from 0.41-1.69 for RFP/GFP ratios (FIG. 6A). […]
smiles,measurement,setting,value
"CC[C@H](OC)[C@@H](C)[C@H]1O[C@@H]1[C@@H](O)[C@H](C)/C=C/C=C(\C)[C@H]1OC(=O)C[C@H](O)CC[C@@](C)(O)[C@@H](OC(C)=O)/C=C/[C@@H]1C (stereo in doubt) [Formula 17S-FD-895, 17S-FD-895]",tolerability / weight changes,[1],"well tolerated, with no significant weight changes detected"
same,RFP/GFP ratios,"[2]; HEK293 cells, 0.01-10 μM, 24 hrs, flow cytometry MFI",dose-dependent increase
same,RFP fluorescence by confocal microscopy,"[2]; reporter-transfected HEK293 cells, 1-10 μM, live-cell / time-lapse",increase in RFP fluorescence; also recorded: increased RFP/GFP expression; also recorded: increased RFP fluorescence
